The source of these data is the OligoGym collection.

These antisense oligonucleotides have a phosphorothioate backbone; sugars and methylation of C are not fully specified.
Also: test concentration or dose not given here.

The target in the data set is SRA1. The conditions noted are these: ASO.
For the sequence TGAAGGAGGTGGAGGCCC, the remaining target (mRNA or protein) (fraction of control) was no less than 1.

Sequence CTCCAGCCCACTGTTCCT yielded a remaining target (mRNA or protein) (fraction of control) of no less than 1.

TTCCAGCCGCGTTCCTTG registered a remaining target (mRNA or protein) (fraction of control) of no less than 1.

CATCCAAACACAGCTGCT registered a remaining target (mRNA or protein) (fraction of control) of 0.39.

In turn, CCCGGCTTCACGTACAGC returned a remaining target (mRNA or protein) (fraction of control) of 0.63.

GGAACCGAGGATTATGAA: the remaining target (mRNA or protein) (fraction of control) was 0.68.

Sequence ACTGGGAAACTTGTGGGC yielded a remaining target (mRNA or protein) (fraction of control) of no less than 1.

The sequence GCTCCACGCCAGAGGCAG registered a remaining target (mRNA or protein) (fraction of control) of 0.49.

AACTGCGGCGGGTCGTTC came in with a remaining target (mRNA or protein) (fraction of control) of no less than 1.

As to CTGCTGCGTCCCACCGGT, the remaining target (mRNA or protein) (fraction of control) came to 0.21.

TGGCCACGGCAGTCTTCC displayed a remaining target (mRNA or protein) (fraction of control) of 0.52.

Sequence TGGTATGGTTCTTCTCAG displayed a remaining target (mRNA or protein) (fraction of control) of 0.58.

As for AAAACAGACTCCTCTTTT, the remaining target (mRNA or protein) (fraction of control) turned out to be 0.54.

The sequence GTGGATGTCATCTGCTGC came in with a remaining target (mRNA or protein) (fraction of control) of no less than 1.

CCTCTGAAAACAGACTCC: the remaining target (mRNA or protein) (fraction of control) was 0.71.

TCTGAAAACAGACTCCTC showed a remaining target (mRNA or protein) (fraction of control) of 0.99.

The sequence AACTTTCCTCCAGCCCAC yielded a remaining target (mRNA or protein) (fraction of control) of 0.21.

Sequence CTGCTGGAAGCCTGGTAT had a remaining target (mRNA or protein) (fraction of control) of 0.77.

Sequence CCTGGGTCCGCCGGCCTG displayed a remaining target (mRNA or protein) (fraction of control) of 0.86.

TCACATGGTCAACCATGA yielded a remaining target (mRNA or protein) (fraction of control) of 0.93.

Turning to TGCTGCGTCCCACCGGTG, the remaining target (mRNA or protein) (fraction of control) was determined as 0.27.

CGTATGAGAACTGCGGCG returned a remaining target (mRNA or protein) (fraction of control) of no less than 1.

In the case of GAGGCCCGGAACTCCACT, the remaining target (mRNA or protein) (fraction of control) amounted to 0.89.

The sequence TTCCTGCAGCAGTGCCAG returned a remaining target (mRNA or protein) (fraction of control) of 0.45.

In turn, TTCTTTACAGGTATTGAC had a remaining target (mRNA or protein) (fraction of control) of no less than 1.

On to CAGCACATCCTCCATCAG, for which the remaining target (mRNA or protein) (fraction of control) was 0.61.

Consider GGATGCTTGTTCAGTCTA, for which the remaining target (mRNA or protein) (fraction of control) was no less than 1.

Consider AAGGAGGTGGAGGCCCCA, for which the remaining target (mRNA or protein) (fraction of control) is 0.72.

The sequence AGAGGCAGGACCACTCCC showed a remaining target (mRNA or protein) (fraction of control) of 0.92.

With CTTCATTGGCTGCCTCCT, the remaining target (mRNA or protein) (fraction of control) came out at 0.2.

GGCACCGGAAGGAGATGG registered a remaining target (mRNA or protein) (fraction of control) of 0.43.

CTTTCCTCCAGCCCACTG gave a remaining target (mRNA or protein) (fraction of control) of 0.36.

As to ATCCTCCATCAGTCGAGC, the remaining target (mRNA or protein) (fraction of control) was no less than 1.

In turn, CCAGCAGATCCCTTCCTG had a remaining target (mRNA or protein) (fraction of control) of no less than 1.

The sequence GCTCCGCCCAGCACAGGA displayed a remaining target (mRNA or protein) (fraction of control) of 0.37.

Consider TGTGTGGCCACGGCAGTC, for which the remaining target (mRNA or protein) (fraction of control) was found to be 0.47.

In turn, ACCTGCTTCCTTGTGTGG registered a remaining target (mRNA or protein) (fraction of control) of 0.32.

AACCGAGGATTATGAAGC: the remaining target (mRNA or protein) (fraction of control) is 0.57.

For the sequence GCCAGAGGCAGGACCACT, the remaining target (mRNA or protein) (fraction of control) is 0.72.

For the sequence GTCTGCAGCCCGTATGAG, the remaining target (mRNA or protein) (fraction of control) is no less than 1.

In turn, GTATCTCAAGGGTGATAC had a remaining target (mRNA or protein) (fraction of control) of 0.6.

GGTGGTGGTAAGAAGGGA showed a remaining target (mRNA or protein) (fraction of control) of no less than 1.

TCTCCAAGGCATAGGAGA returned a remaining target (mRNA or protein) (fraction of control) of 0.8.

GGTGTCCGGTGAGTCTGG returned a remaining target (mRNA or protein) (fraction of control) of 0.5.

In turn, GGGTCAGGCCCAGTGGGA registered a remaining target (mRNA or protein) (fraction of control) of no less than 1.

As to GGTTCTTCTCAGCTGTGG, the remaining target (mRNA or protein) (fraction of control) was 0.49.

Turning to GCCAGGCGTCGGCTGATG, the remaining target (mRNA or protein) (fraction of control) was found to be 0.38.

Sequence CCCCACTCAATGTGGTTC registered a remaining target (mRNA or protein) (fraction of control) of 0.31.

Take TTCTGCAATTAATCTTTT: the remaining target (mRNA or protein) (fraction of control) is 0.59.

For the sequence CGAGCGCCTGGGTCCGCC, the remaining target (mRNA or protein) (fraction of control) amounted to 0.48.

With CTGAAAACAGACTCCTCT, the remaining target (mRNA or protein) (fraction of control) came to 0.56.

For the sequence ATGCATGTTATGAGTAAC, the remaining target (mRNA or protein) (fraction of control) is no less than 1.

In turn, CTTTTAACTCCTACCATC displayed a remaining target (mRNA or protein) (fraction of control) of 0.43.

Sequence CTCAGCTGTGGCTGCAGA yielded a remaining target (mRNA or protein) (fraction of control) of no less than 1.

Consider GGCCTGGGTCTGCAGCCC, for which the remaining target (mRNA or protein) (fraction of control) is 0.94.

Take ACGCCAGAGGCAGGACCA: the remaining target (mRNA or protein) (fraction of control) came to 0.55.

With AGGCCCAGGAGAAGTCTC, the remaining target (mRNA or protein) (fraction of control) turned out to be 0.61.

For the sequence TGTTCCTGCAGCAGTGCC, the remaining target (mRNA or protein) (fraction of control) worked out at 0.39.

In the case of TTCCAAAGGTCTCAGCAC, the remaining target (mRNA or protein) (fraction of control) amounted to 0.49.

As to CCTGCTTCCTTGTGTGGC, the remaining target (mRNA or protein) (fraction of control) is 0.66.
